Test results taken from PubChem BioAssay (NCI).
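These data come from cells grown in 96-well plates and exposed to compound for 48 hours at five concentrations. At the GI50, growth is halved. TGI denotes the concentration required for complete inhibition of growth.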

Key:
Assay in all cases: growth of human tumour cells (NCI), 48 h; in the data active = GI50 below about 0.43 µM; inactive = the rest
[1] = system: RPMI-8226 leukemia
[2] = system: CAKI-1 renal
[3] = system: HL-60(TB) leukemia
[4] = system: SF-268 CNS
[5] = system: NCI/ADR-RES ovarian
[6] = system: SNB-19 CNS
[7] = system: MCF7 breast
[8] = system: U251 CNS
[9] = system: HT29 colon
[10] = system: MALME-3M melanoma
[11] = system: HOP-62 NSCLC
[12] = system: NCI-H23 lung
[13] = system: HCT-116 colon
[14] = system: OVCAR-3 ovarian
[15] = system: UACC-257 melanoma
[16] = system: NCI-H522 lung
[17] = system: NCI-H226 lung
[18] = system: HCT-15 colon
[19] = system: LOX IMVI melanoma
[20] = system: IGROV1 ovarian
[21] = system: SK-OV-3 ovarian
[22] = system: SF-539 CNS
[23] = system: MDA-MB-231 breast
[24] = system: T-47D breast
[25] = system: SK-MEL-2 melanoma
[26] = system: HCC-2998 colon
[27] = system: PC-3 prostate
[28] = system: DU-145 prostate
[29] = system: K-562 leukemia
[30] = system: OVCAR-4 ovarian
[31] = system: EKVX NSCLC
[32] = system: UO-31 renal
[33] = system: SF-295 CNS
[34] = system: ACHN renal
[35] = system: TK-10 renal
[36] = system: KM12 colon
[37] = system: SR leukemia
[38] = system: HS 578T breast
[39] = system: SK-MEL-28 melanoma
[40] = system: 786-0 renal
[41] = system: SK-MEL-5 melanoma
[42] = system: A498 renal
[43] = system: SNB-75 CNS
[44] = system: SW-620 colon
[45] = system: COLO 205 colon
[46] = system: SN12C renal
[47] = system: HOP-92 NSCLC
[48] = system: M14 melanoma
[49] = system: UACC-62 melanoma
[50] = system: OVCAR-5 ovarian
[51] = system: A549 NSCLC
[52] = system: BT-549 breast
[53] = system: MOLT-4 leukemia
[54] = system: CCRF-CEM leukemia
[55] = system: NCI-H460 lung
[56] = system: OVCAR-8 ovarian
[57] = system: MDA-MB-435

NCCCC(=O)Nc1ccncc1
> 100 µM: TGI [1] | TGI [2] | TGI [3] | TGI [4] | TGI [5] | TGI [6] | TGI [7] | TGI [8] | TGI [9] | TGI [10] | TGI [11] | TGI [12] | TGI [13] | TGI [14] | TGI [15] | TGI [16] | TGI [17] | TGI [18] | TGI [19] | TGI [20] | TGI [21] | TGI [22] | TGI [23] | TGI [24] | TGI [25] | TGI [26] | TGI [27] | TGI [28] | TGI [29] | TGI [30] | TGI [31] | TGI [32] | TGI [33] | TGI [34] | TGI [35] | TGI [36] | TGI [37] | TGI [38] | TGI [39] | TGI [40] | TGI [41] | TGI [42] | TGI [43] | TGI [44] | TGI [45] | TGI [46] | TGI [47] | TGI [48] | TGI [49] | TGI [50] | TGI [51] | TGI [52] | TGI [53] | TGI [54] | TGI [55] | TGI [56] | TGI [57]
inactive: GI50 [1] > 100 µM | GI50 [2] > 100 µM | GI50 [3] > 100 µM | GI50 [4] > 100 µM | GI50 [5] > 100 µM | GI50 [6] > 100 µM | GI50 [7] > 100 µM | GI50 [8] > 100 µM | GI50 [9] > 100 µM | GI50 [10] > 100 µM | GI50 [11] > 100 µM | GI50 [12] > 100 µM | GI50 [13] > 100 µM | GI50 [14] > 100 µM | GI50 [15] > 100 µM | GI50 [16] > 100 µM | GI50 [17] > 100 µM | GI50 [18] > 100 µM | GI50 [19] > 100 µM | GI50 [20] > 100 µM | GI50 [21] > 100 µM | GI50 [22] > 100 µM | GI50 [23] > 100 µM | GI50 [24] > 100 µM | GI50 [25] > 100 µM | GI50 [26] > 100 µM | GI50 [27] > 100 µM | GI50 [28] > 100 µM | GI50 [29] > 100 µM | GI50 [30] > 100 µM | GI50 [31] > 100 µM | GI50 [32] > 100 µM | GI50 [33] > 100 µM | GI50 [34] > 100 µM | GI50 [35] > 100 µM | GI50 [36] > 100 µM | GI50 [37] > 100 µM | GI50 [38] > 100 µM | GI50 [39] > 100 µM | GI50 [40] > 100 µM | GI50 [41] > 100 µM | GI50 [42] > 100 µM | GI50 [43] 60 µM | GI50 [44] > 100 µM | GI50 [45] > 100 µM | GI50 [46] > 100 µM | GI50 [47] > 100 µM | GI50 [48] > 100 µM | GI50 [49] > 100 µM | GI50 [50] > 100 µM | GI50 [51] > 100 µM | GI50 [52] > 100 µM | GI50 [53] > 100 µM | GI50 [54] > 100 µM | GI50 [55] > 100 µM | GI50 [56] > 100 µM | GI50 [57] > 100 µM
